Results: patent publication US7632814B2, “HYD1 peptides as anti-cancer agents” (University of South Florida, priority 2006, dated 2009)
Entries after “also recorded” stand apart in the source; their conditions may differ. Where no end group is shown, it is not given here. [ ]: non-standard residue; d: D form.

Assays:
[1] = tested on: caspase 3; assay: Caspase 3 activity in H929 cells (fluorescent substrate); type: cell-based; details: 6 and 24 hrs, relative to treatment with melphalan
Method: Cells were treated for 6 hours (FIG. 21A) or 24 hours (FIG. 21B) and caspase 3 activity was measured using a fluorescent substrate. Shown is a representative experiment performed in triplicate. The experiment was repeated twice and similar results were obtained.
Detection of Apoptosis. A flow cytometric assay measuring Annexin V/PI staining was used to measure apoptotic cells following 24 hours of peptide exposure as previously described (Damiano J S et al. Blood, 1999; 93:1658-1667). The assay was performed in triplicate and 3 independent experiments were performed. Caspase 3 and 8 activity was measured at 6 and 24 hrs post peptide treatment per manufactures' instructions (BD Biosciences, San Jose, Calif.). The caspase assays were performed in triplicate and repeated twice.

[2] = tested on: DUH-H prostate carcinoma cells; details: DeRoock et al. 2001; cited from earlier work
[3] = tested on: phospho Pyk2 in H929 cells; assay: Phospho-Pyk2 levels in suspension culture (immunoblot); type: cell-based; details: H929 cells cultured in suspension
Excerpt: Based upon the observation that HYD1 increased melphalan induced apoptosis in suspension cultures, whether treatment with HYD1 inhibits phosphorylation of a downstream mediator of β1 integrin signaling (Pyk2) in suspension cultures was investigated.

[4] = tested on: 8226 cells; assay: Cell adhesion to fibronectin (crystal violet staining); type: cell-based; details: varying concentrations, 30 minutes pre-incubation, 2 hours adhesion
Method: (§1) FIGS. 30A and 30B are graphs showing that HYD1 but not the scrambled derivative HYD1S inhibited cell adhesion of both 8226 and H929 cells to FN. Varying concentrations of either HYD1, HYD1S, or a 1:100 dilution of either α4β1 or α5β1 integrin functional blocking antibodies was added to either (FIG. 30A) 8226 cell or (FIG. 30B) H929 cells for 30 minutes prior to adding cells to either FN or BSA coated wells. Cells were allowed to adhere for 2 hours and adherent cells were measured by crystal violet staining at 540 nm. Shown is the mean and standard deviation of a representative experiment performed in quadruplicate. Three independent experiments were performed and similar results were obtained.
Quantification of cell adhesion to fibronectin. […] Cell adhesion was detected by crystal violet staining as previously described (Damiano J S et al. Blood, 1999; 93:1658-1667; Hazlehurst L A et al. Oncogene, 2000; 19:4319-4327).
Briefly, 8226 myeloma cells were pre-incubated with varying concentrations of either HYD1 or the scrambled HYD1S peptide for 30 minutes prior to allowing cells to attach to FN for two hours. Following two hours of cell adhesion, the amount of cells adherent to FN was measured. […] Twenty-four hours after drug treatment, apoptosis was measured by Annexin V-PE positive events by FACS analysis. […]

[5] = tested on: 8226 MM; assay: SCID-Hu in vivo model, tumor burden by circulating lambda levels; parameters: species or system SCID mice
Method: 8226 cells (50,000 cells per mice) were engrafted into implanted human bone for 28 days. Following tumor engraftment, mice were treated with either 2 mg/Kg HYD1 or HYD1S (I.P. daily). Appropriate mice were treated with 1.5 mg/kg melphalan (mel) on day 29 and day […] (I.P. injections). Tumor burden was measured by lambda levels on day 28 and day 35 (n=3 mice per group).
Tumor burden was measured by circulating lambda levels. On day 28 (before drug treatment) measurements were recorded for each individual mouse and subsequent values obtained weekly are represented as a ratio of day 28 (day X/day 28). N=4 mice per group. HYD1 was administered I.P. at 2 mg/kg daily for 14 days (starting day 28). Melphalan was administered I.P. at 1.5 mg/kg on day 29 and 32.
SCID-Hu model. […] At 28 days, baseline tumor burden was quantified in the sera using either a lambda (8226) or kappa (H929) ELISA kit per manufacture instructions (Bethyl, Montgomery, Tex.) and mice were randomized into treatment groups. […] Tumor burden was assessed weekly by measuring kappa or lambda levels in the sera.
The SCID-Hu model consists of implanting human fetal bone into the mammary mouse fat pad of SCID mice. […] Human paraprotein can be measured in the mouse sera and levels represent a good marker for evaluating tumor burden and response to chemotherapy. […]

[6] = tested on: H929 cells; assay: Cell adhesion to fibronectin (crystal violet staining); type: cell-based; details: varying concentrations, 30 minutes pre-incubation, 2 hours adhesion
Method: as §1
Quantification of cell adhesion to fibronectin. Briefly, 8226 or H929 myeloma cells were pre-incubated with varying concentrations of either HYD1 or the scrambled peptide (HYD1S) for 30 minutes prior to allowing cells to attach to FN for two hours. Cell adhesion was detected by crystal violet staining as previously described (Damiano J S et al. Blood, 1999; 93:1658-1667; Hazlehurst L A et al. Oncogene, 2000; 19:4319-4327).

**Q.** Which “caspase 3 activity” value [1] does the source give for “kikmviswkg ([dK][dI][dK][dM][dV][dI][dS][dW][dK]G) [HYD1]” here?
**A.** minimal caspase 3 activity

**Q.** What about the “inhibition of adhesion to FN, laminin 1, laminin 5 and collagen V” value [2] of the same substance?
**A.** inhibit adhesion

**Q.** And the “phospho Pyk2 levels” value [3]?
**A.** reduces phospho Pyk2 levels

**Q.** What about the “blocking of adhesion of 8226 cells to the extracellular matrix FN” value [4] of the same substance?
**A.** blocks adhesion of 8226 and H929 cells to the extracellular matrix FN in a dose dependent manner

**Q.** And the “tumor burden (lambda levels), combination with melphalan” value ([5]; 8226, 2 mg/kg HYD1 I.P. daily with 1.5 mg/kg melphalan I.P.)?
**A.** greatest reduction in tumor burden; also recorded: enhances melphalan induced cell death

**Q.** And the “tumor burden (circulating lambda levels, day X/day 28), single agent” value ([5]; 8226, 2 mg/kg I.P. daily for 14 days starting day 28)?
**A.** antitumor activity was detected; also recorded: reduces 8226 MM growth in vivo

**Q.** And the “blocking of adhesion of H929 cells to the extracellular matrix FN” value [6]?
**A.** blocks adhesion of 8226 and H929 cells to the extracellular matrix FN in a dose dependent manner
